Assay results from DBAASP.
Converted amounts (≈) assume the structure as drawn. Each block holds one compound with its values, some of them ahead of it.

How the values were obtained:
Test in all cases: ≥ marks a high value that may be exact or a test limit, other limits are often not marked, values filed in µg/mL are converted to µM
[1] = tested on: Nocardia asteroides 201118
[2] = tested on: Staphylococcus aureus ATCC 25923
[3] = tested on: Escherichia coli ATCC 8739
[4] = tested on: Acinetobacter baumannii ATCC 19606
[5] = tested on: Klebsiella pneumoniae ATCC 13883
[6] = tested on: Escherichia coli ATCC 25922
[7] = tested on: Staphylococcus aureus ATCC 29213
[8] = tested on: Pseudomonas aeruginosa ATCC 47085
[9] = tested on: Pseudomonas aeruginosa ATCC 27853
Staphylococcus aureus 1 = tested on: Staphylococcus aureus 1
Escherichia coli B = tested on: Escherichia coli B
[10] = tested on: Micrococcus luteus CCM 144
[11] = tested on: Staphylococcus aureus ATCC 43300
[12] = tested on: Staphylococcus epidermidis
Bacillus subtilis 168 = tested on: Bacillus subtilis 168
Staphylococcus aureus = tested on: Staphylococcus aureus
Pseudomonas aeruginosa = tested on: Pseudomonas aeruginosa
[13] = tested on: Candida albicans F7-39/IDE99
[14] = tested on: Enterobacter cloacae HNTCC 53001
[15] = tested on: Staphylococcus aureus NCTC 8325
[16] = tested on: Proteus mirabilis ATCC 25933
[17] = tested on: Staphylococcus epidermidis RP62A
[18] = tested on: Enterococcus faecalis ATCC 29212
[19] = tested on: Candida albicans ATCC 90028
[20] = tested on: Klebsiella pneumoniae KK3 9904
Salmonella typhimurium = tested on: Salmonella typhimurium
Bacillus subtilis = tested on: Bacillus subtilis
Escherichia coli HB101 = tested on: Escherichia coli HB101
[21] = tested on: Staphylococcus aureus ATCC 33591
[22] = tested on: Staphylococcus epidermidis ATCC 35984
[23] = tested on: Salmonella enterica subsp. enterica serovar Typhimurium ATCC 14028
[24] = tested on: Escherichia coli BW25113 ΔsbmA
Escherichia coli BW25113 = tested on: Escherichia coli BW25113
[25] = tested on: Klebsiella pneumoniae ATCC 700603
[26] = tested on: Staphylococcus aureus ATCC 9144
[27] = tested on: Corynebacterium glutamicum ATCC 13032

SMILES: CC[C@H](C)[C@H](NC(=O)[C@H](C)NC(=O)CNC(=O)[C@@H](NC(=O)[C@H](CC(C)C)NC(=O)[C@H](CC(C)C)NC(=O)[C@@H]1CCCN1C(=O)[C@H](CC(C)C)NC(=O)[C@@H](N)Cc1ccccc1)C(C)C)C(=O)N[C@@H](CO)C(=O)N[C@@H](CO)C(=O)N[C@H](C(=O)N[C@@H](CC(C)C)C(=O)N1CCC[C@H]1C(=O)N[C@@H](CCCCN)C(=O)N[C@H](C(=O)N[C@@H](Cc1ccccc1)C(N)=O)[C@@H](C)CC)[C@@H](C)CC [FLPLLVGAISSILPKIF]
MIC [1]: 6.3 µM (≈ 11.5 µg/mL)
MIC [2]: 12.5 µM (≈ 22.8 µg/mL)

SMILES: CC[C@H](C)[C@H](NC(=O)CN)C(=O)NCC(=O)N[C@@H](C)C(=O)N[C@H](C(=O)N[C@@H](CC(C)C)C(=O)N[C@@H](CCCCN)C(=O)N[C@H](C(=O)N[C@@H](CC(C)C)C(=O)N[C@H](C(=O)N[C@H](C(=O)NCC(=O)N[C@@H](CC(C)C)C(=O)N1CCC[C@H]1C(=O)N[C@@H](C)C(=O)N[C@@H](CC(C)C)C(=O)N[C@H](C(=O)N[C@@H](CO)C(=O)N[C@@H](Cc1c[nH]c2ccccc12)C(=O)N[C@H](C(=O)N[C@@H](CCCCN)C(=O)N[C@@H](CCCN=C(N)N)C(=O)N[C@@H](CCCCN)C(=O)N[C@@H](CCCN=C(N)N)C(=O)N[C@@H](CCC(N)=O)C(=O)N[C@@H](CCC(N)=O)C(=O)O)[C@@H](C)CC)[C@@H](C)CC)[C@@H](C)O)[C@@H](C)O)C(C)C)C(C)C [GIGAVLKVLTTGLPALISWIKRKRQQ]
MIC [3]: 4.52 µM (≈ 12.9 µg/mL)
MIC [4]: 4.1 µM (≈ 11.7 µg/mL)
MIC [5]: 3.5 µM (≈ 9.97 µg/mL)
MIC [6]: 6.3 µM (≈ 17.9 µg/mL)
MIC [7]: 3.83 µM (≈ 10.9 µg/mL)
MIC [8]: 4.9 µM (≈ 14 µg/mL)

SMILES: CC[C@H](C)[C@H](NC(=O)CN)C(=O)N[C@@H](CC(C)C)C(=O)N[C@@H](CO)C(=O)N[C@@H](CO)C(=O)N[C@@H](CC(C)C)C(=O)N[C@@H](Cc1c[nH]c2ccccc12)C(=O)N[C@@H](CCCCN)C(=O)N[C@@H](CCCCN)C(=O)N[C@@H](CC(C)C)C(=O)N[C@@H](CCCCN)C(=O)N[C@@H](CCCCN)C(=O)N[C@@H](Cc1c[nH]c2ccccc12)C(=O)N[C@H](C(=O)N[C@@H](C)C(=O)N[C@@H](CCCCN)C(N)=O)[C@@H](C)CC [GILSSLWKKLKKWIAK]
MIC [9]: 13 µM (≈ 24.7 µg/mL)
MIC (Staphylococcus aureus 1): 1.8 µM (≈ 3.42 µg/mL)
MIC (Escherichia coli B): 2.5 µM (≈ 4.75 µg/mL)
MIC [10]: 3 µM (≈ 5.7 µg/mL)
MIC [11]: 2.5 µM (≈ 4.75 µg/mL)
MIC [12]: 1.6 µM (≈ 3.04 µg/mL)
MIC (Bacillus subtilis 168): 7 µM (≈ 13.3 µg/mL)
MIC (Staphylococcus aureus): 2 µM (≈ 3.8 µg/mL)
MIC (Pseudomonas aeruginosa): 24 µM (≈ 45.6 µg/mL)
MIC [13]: 13 µM (≈ 24.7 µg/mL)

SMILES: CC[C@H](C)[C@H](NC(=O)CNC(=O)[C@H](CCCCN)NC(=O)[C@H](Cc1ccccc1)NC(=O)[C@@H](NC(=O)[C@H](CCCCN)NC(=O)[C@H](CCCCN)NC(=O)[C@H](CC(C)C)NC(=O)[C@H](C)NC(=O)[C@H](CCCCN)NC(=O)[C@H](CC(C)C)NC(=O)CN)C(C)C)C(=O)N[C@@H](Cc1cnc[nH]1)C(=O)N[C@@H](CCCCN)C(=O)N[C@@H](C)C(=O)N[C@H](C(=O)N[C@@H](CCCCN)C(=O)N[C@@H](CC(C)C)C(=O)N[C@H](C(=O)N[C@@H](CC(N)=O)C(=O)N[C@@H](CC(N)=O)C(=O)N[C@@H](Cc1cnc[nH]1)C(=O)N[C@H](C(=O)N[C@@H](CCC(N)=O)C(=O)O)C(C)C)[C@@H](C)CC)[C@@H](C)CC [GLKALKKVFKGIHKAIKLINNHVQ]
MIC [9]: 5 µM (≈ 13.5 µg/mL)
MIC [14]: 5 µM (≈ 13.5 µg/mL)
MIC [15]: 20 µM (≈ 54 µg/mL)
MIC [6]: 5 µM (≈ 13.5 µg/mL)
MIC [16]: ≥ 80 µM
MIC [17]: 10 µM (≈ 27 µg/mL)
MIC [18]: > 80 µM
MIC [19]: ≥ 80 µM
MIC [20]: 5 µM (≈ 13.5 µg/mL)

The remaining lines, values ahead:

MIC (Salmonella typhimurium): 1.3 µM (≈ 3.09 µg/mL)
MIC (Bacillus subtilis): 5.2 µM (≈ 12.4 µg/mL)
MIC (Escherichia coli HB101): 2.6 µM (≈ 6.18 µg/mL)
MIC (Staphylococcus aureus): 20.8 µM (≈ 49.4 µg/mL)
MIC (Pseudomonas aeruginosa): 5.2 µM (≈ 12.4 µg/mL)
SMILES: CC[C@H](C)[C@H](NC(=O)[C@@H](NC(=O)[C@@H]1CCCN1C(=O)[C@@H](NC(=O)[C@@H]1CCCN1C(=O)[C@H](CCCCN)NC(=O)[C@H](CCCCN)NC(=O)[C@H](CO)NC(=O)CN)C(C)C)[C@@H](C)CC)C(=O)N[C@@H](Cc1ccc(O)cc1)C(=O)N[C@H]1CSSC[C@@H](C(=O)N[C@@H](CCC(N)=O)C(=O)N[C@@H](CCCN=C(N)N)C(=O)N[C@@H](CCSC)C(=O)O)NC(=O)[C@H](CCCCN)NC(=O)[C@H]([C@@H](C)O)NC(=O)[C@H](CCCN=C(N)N)NC(=O)[C@H](CCCN=C(N)N)NC(=O)[C@H](CC(N)=O)NC1=O [GSKKPVPIIYCNRRTKCQRM]

MIC [9]: > 371 µM
MIC [21]: ≥ 371 µM
MIC [22]: ≥ 371 µM
MIC [2]: > 371 µM
SMILES: CC(C)[C@H](NC(=O)[C@H](Cc1ccccc1)NC(=O)[C@H](C)NC(=O)[C@H](CCCCN)NC(=O)CNC(=O)[C@H](Cc1ccccc1)NC(=O)[C@H](CCCCN)NC(=O)[C@H](CCCCN)NC(=O)[C@H](C)NC(=O)[C@H](CCCCN)NC(=O)[C@@H](N)CCCCN)C(=O)N[C@@H](CCCCN)C(N)=O [KKAKKFGKAFVK]

MIC [9]: > 64 µM
MIC [4]: 16 µM (≈ 42.6 µg/mL)
MIC [23]: 8 µM (≈ 21.3 µg/mL)
MIC [24]: 16 µM (≈ 42.6 µg/mL)
MIC [6]: 4 µM (≈ 10.6 µg/mL)
MIC (Escherichia coli BW25113): 2 µM (≈ 5.32 µg/mL)
MIC [25]: 32 µM (≈ 85.1 µg/mL)
MIC [2]: > 64 µM
SMILES: CC[C@H](C)[C@H](NC(=O)[C@@H]1CCCN1C(=O)[C@@H]1CCCN1C(=O)[C@H](CCCN=C(N)N)NC(=O)[C@H](Cc1ccccc1)NC(=O)[C@@H](N)CCCN=C(N)N)C(=O)N[C@@H](CCCN=C(N)N)C(=O)N[C@@H](CCCN=C(N)N)C(=O)N1CCC[C@H]1C(=O)N1CCC[C@H]1C(=O)N[C@H](C(=O)N[C@@H](CCCN=C(N)N)C(=O)N1CCC[C@H]1C(=O)N1CCC[C@H]1C(=O)N[C@@H](Cc1ccccc1)C(=O)N[C@@H](Cc1ccc(O)cc1)C(=O)N1CCC[C@H]1C(=O)N1CCC[C@H]1C(=O)N[C@@H](Cc1ccccc1)C(=O)N[C@@H](CCCN=C(N)N)C(=O)N1CCC[C@H]1C(=O)O)[C@@H](C)CC [RFRPPIRRPPIRPPFYPPFRP]

MIC [9]: 12.5 µM (≈ 34.3 µg/mL)
MIC [6]: 6.3 µM (≈ 17.3 µg/mL)
MIC (Escherichia coli HB101): 3.1 µM (≈ 8.5 µg/mL)
MIC [26]: ≥ 100 µM
MIC [27]: 0.8 µM (≈ 2.19 µg/mL)
SMILES: CC[C@H](C)[C@H](NC(=O)[C@@H]1CCCN1C(=O)[C@H](CCCCN)NC(=O)[C@@H]1CCCN1C(=O)[C@H](CCCN=C(N)N)NC(=O)CNC(=O)[C@@H]1CCCN1C(=O)[C@H](Cc1ccccc1)NC(=O)[C@@H]1CCCN1C(=O)[C@H](CCCN=C(N)N)NC(=O)[C@@H]1CCCN1C(=O)[C@H](CCCN=C(N)N)NC(=O)CNC(=O)[C@@H]1CCCN1C(=O)[C@H](CO)NC(=O)[C@@H]1CCCN1C(=O)[C@H](Cc1c[nH]c2ccccc12)NC(=O)[C@H](CCCN=C(N)N)NC(=O)[C@@H](N)CO)C(=O)N[C@@H](Cc1ccccc1)C(=O)N[C@@H](CCCN=C(N)N)C(=O)N1CCC[C@H]1C(=O)N[C@@H](CCCN=C(N)N)C(=O)O [SRWPSPGRPRPFPGRPKPIFRPR]
